This data set can be described thus: recombinant UMI read abundance after kanamycin selection (control-corrected) (log10(CPM+1)); higher = more efficient recombination; extreme values may be limits of the assay; sequences stand for … in AGTGCAGAGAAAATCGGCCAGTTTTCTCTGCCTGCAGTCCGCATGCCGTGGGACCCCTTGGGTTCTAACCTGTTGCCTAGATTTATGCAGCGGACTGCCTTTCTCCCAAAGTGATAAACCGG…AGGTTGGTTTCACT; site = the 11-nt donor. The method in brief: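 Each donor and donor-binding-loop pair was tracked by a 12-nt UMI on a plasmid carrying a promoterless kanamycin gene. With a second plasmid supplying a fixed target and T7-inducible IS621 bridge recombinase, the pool was plated in Escherichia coli on IPTG (0.07 mM) plus kanamycin or unselected. Sequencing of recombinant UMIs across the donor–target junction gave counts expressed as log10(CPM+1) after replicate averaging and control-derived scaling.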
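Further: IS621 bridge recombinase in Escherichia coli cells against a fixed T5 target plasmid.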

Turning to “CTGCCTACATGGACCGGTTTTCCCGGTAATCCGTATTTGAG (site CTTCCTACTCT)”, the “recombinant UMI read abundance (log10)” value worked out at 0.12. In the case of “CTGCGAACATGGACCGGTTTTCCCGGTAATCCGTATTTGCA (site CTGCGAACTTG)”, the “recombinant UMI read abundance (log10)” value stood at 1.38. Turning to “CTGCGGTCATGGACCGGTTTTCCCGGTAATCCGTATTTGTC (site CTGCGGTCTGA)”, the “recombinant UMI read abundance (log10)” value stood at 2.1.

On to “CTGCGTGCATGGACCGGTTTTCCCGGTAATCCGTATTTGGT (site CTGCGTGCTAC)”, for which the “recombinant UMI read abundance (log10)” value worked out at 1.37. For the sequence “CTGCTACCATGGACCGGTTTTCCCGGTAATCCGTATTTGCG (site CTGCTACCTAG)”, the “recombinant UMI read abundance (log10)” value was 0. With “CTGCTACCATGGACCGGTTTTCCCGGTAATCCGTATTTGCG (site CTGCTACCTCG)”, the “recombinant UMI read abundance (log10)” value is 0.309. Regarding “CTGCTACCATGGACCGGTTTTCCCGGTAATCCGTATTTGCG (site CTGCTACCTGG)”, the “recombinant UMI read abundance (log10)” value is 0. Regarding “CTGCTACCATGGACCGGTTTTCCCGGTAATCCGTATTTGCG (site CTGCTACCTTG)”, the “recombinant UMI read abundance (log10)” value is 0. “CTGCTACCATGGACCGGTTTTCCCGGTAATCCGTATTTGTT (site CTGCTACCTAA)”: the “recombinant UMI read abundance (log10)” value stood at 0.0134. As for “CTGCTACCATGGACCGGTTTTCCCGGTAATCCGTATTTGTT (site CTGCTACCTAC)”, the “recombinant UMI read abundance (log10)” value was 0.0167. For “CTGCTACCATGGACCGGTTTTCCCGGTAATCCGTATTTGTT (site CTGCTACCTAG)” the value was 0; for “CTGCTACCATGGACCGGTTTTCCCGGTAATCCGTATTTGTT (site CTGCTACCTAT)”, 0.011; for “CTGCTAGCATGGACCGGTTTTCCCGGTAATCCGTATTTGCT (site CTGCTAACTAG)”, 0. Consider “CTGCTAGCATGGACCGGTTTTCCCGGTAATCCGTATTTGCT (site CTGCTACCTAG)”, for which the “recombinant UMI read abundance (log10)” value came to 0. For “CTGCTAGCATGGACCGGTTTTCCCGGTAATCCGTATTTGCT (site CTGCTAGCTAG)” the value was 0; for “CTGCTAGCATGGACCGGTTTTCCCGGTAATCCGTATTTGCT (site CTGCTATCTAG)”, 0. Turning to “CTGCTATCATGGACCGGTTTTCCCGGTAATCCGTATTTGCT (site CTGCTAACTAG)”, the “recombinant UMI read abundance (log10)” value stood at 0.708. As to “CTGCTATCATGGACCGGTTTTCCCGGTAATCCGTATTTGCT (site CTGCTACCTAG)”, the “recombinant UMI read abundance (log10)” value was determined as 0. Take “CTGCTATCATGGACCGGTTTTCCCGGTAATCCGTATTTGCT (site CTGCTAGCTAG)”: the “recombinant UMI read abundance (log10)” value was 0.0179.

In the case of “CTGCTATCATGGACCGGTTTTCCCGGTAATCCGTATTTGCT (site CTGCTATCTAG)”, the “recombinant UMI read abundance (log10)” value came out at 2.33. The result for “CTGCTGCCATGGACCGGTTTTCCCGGTAATCCGTATTTGCT (site CTGCTACCTAG)” reads 0.00624. For “CTGCTGCCATGGACCGGTTTTCCCGGTAATCCGTATTTGCT (site CTGCTCCCTAG)” the value was 0.506. For “CTGCTGCCATGGACCGGTTTTCCCGGTAATCCGTATTTGCT (site CTGCTGCCTAG)” the value was 1.22; for “CTGCTGCCATGGACCGGTTTTCCCGGTAATCCGTATTTGCT (site CTGCTTCCTAG)”, 0; for “CTGCTTCCATGGACCGGTTTTCCCGGTAATCCGTATTTGCT (site CTGCTACCTAG)”, 0. Turning to “CTGCTTCCATGGACCGGTTTTCCCGGTAATCCGTATTTGCT (site CTGCTCCCTAG)”, the “recombinant UMI read abundance (log10)” value was 0.807. In the case of “CTGCTTCCATGGACCGGTTTTCCCGGTAATCCGTATTTGCT (site CTGCTGCCTAG)”, the “recombinant UMI read abundance (log10)” value was determined as 0.00367. Turning to “CTGCTTCCATGGACCGGTTTTCCCGGTAATCCGTATTTGCT (site CTGCTTCCTAG)”, the “recombinant UMI read abundance (log10)” value was determined as 1.73. In the case of “CTGGAACCATGGACCGGTTTTCCCGGTAATCCGTATTTGAT (site CAGGAACCTAT)”, the “recombinant UMI read abundance (log10)” value was determined as 0.

Values taken from the supplement of paper PMC11208160.
